Measured values as given in patent US12522597B2, “Methods and compositions for modulating splicing” (Skyhawk Therapeutics, Inc., priority 2019, dated 2026).
Where two headings read alike, the source gives them in different places.

What was measured:
mHTT protein = mHTT protein assay (2B7-MW1, Mesoscale Discovery); format: cell-based, human; settings: GM04724 (CAG 70/20) Huntington's disease patient lymphoblast cells, 48 hours, 2B7-MW1 MSD; read-out: HTT Potency - Protein EC50 mHTT (average)
How it was run: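 mHTT levels were read with the 2B7-MW1 antibody pair (N17 and polyQ epitopes) on MSD after 48 h dosing, 10 μM–0.6 nM. Cells were GM04724 HD lymphoblasts (CAG 70/20). A replica plate was read by CTG for cell viability.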

[1] = tested on: Huntingtin (HTT) transcripts; assay: Quantitative splicing assay (HTT), qPCR; format: cell-based; settings: Homo sapiens, GM04724 (CAG 70/20) Huntington's disease patient lymphoblasts, 24 h
How it was run: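 Read-out is TaqMan qPCR on cDNA, quantifying inclusion of a cryptic exon within HTT intron 49. Cells were Huntington's patient lymphoblasts GM04724 (CAG 70/20), treated for 24 h at 0.15 nM–2.5 uM compound in 0.1% DMSO.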

[2] = tested on: MDR1-MDCK cell monolayers; assay: MDCK-MDR1 permeability assay (BBB penetration potential); format: in vitro ADME; settings: dog, MDCK-MDR1, 120 min, 5 μM, pH 7.4
Experimental: (§1) Each determination is performed in duplicate. […] Analytical conditions are outlined below.

MDR1 = assay: as above; format: in vitro ADME; settings: dog; for efflux ratio at 120 min, 5 μM: MDCK-MDR1, pH 7.4, MDCK-MDR1: Efflux; for Papp A→B at 120 min, 5 μM: MDCK-MDR1, pH 7.4, MDCK-MDR1: Papp A-B; for Papp B→A at 120 min, 5 μM: MDCK-MDR1, pH 7.4, MDCK-MDR1: Papp B-A
Experimental: as §1

[3] = qPCR HTTex49_50, read-out: HTT Potency - Splicing: E49-50 EC50 (average)
[4] = qPCR cryptic exon 49b inclusion, read-out: HTT Potency - Splicing: E49b EC50 (average)

Cn1ccc(-c2ccc(-c3ccc(O[C@@H]4C[C@H]5CCC[C@H](N5)[C@@H]4F)nn3)c(O)c2)cc1=O (single isomer, unassigned) [54-ENT1]
EC50 (mHTT protein): 0.01 to 15 nM
EC50 [1, 3]: 16 to 50 nM
EC50 [1, 4]: 16 to 50 nM
MDCK-MDR1: % Recov A-B [2]: 94%
MDCK-MDR1: % Recov B-A [2]: 105%
efflux ratio at 120 min, 5 μM (MDR1): 57
Papp A→B at 120 min, 5 μM (MDR1): 1.1 ×10⁻⁶ cm/s
Papp B→A at 120 min, 5 μM (MDR1): 63 ×10⁻⁶ cm/s

CNC(=O)c1ccc2cc(-c3ccc(O[C@@H]4C[C@H]5CCC[C@H](N5)[C@@H]4F)nn3)c(O)cc2n1 (single isomer, unassigned) [136-ENT2]
EC50 (mHTT protein): 0.01 to 15 nM
EC50 [1, 3]: 0.01 to 15 nM
EC50 [1, 4]: 16 to 50 nM
MDCK-MDR1: % Recov A-B [2]: 88%
MDCK-MDR1: % Recov B-A [2]: 93%
efflux ratio at 120 min, 5 μM (MDR1): 25
Papp A→B at 120 min, 5 μM (MDR1): 2.1 ×10⁻⁶ cm/s
Papp B→A at 120 min, 5 μM (MDR1): 52.1 ×10⁻⁶ cm/s

Cn1ccc2cc(O)c(-c3ccc(O[C@@H]4C[C@@]5(C)CC[C@](C)(N5)[C@@H]4F)nn3)cc2c1=O (single isomer, unassigned) [130-ENT2]
EC50 (mHTT protein): 0.01 to 15 nM
EC50 [1, 3]: 16 to 50 nM
EC50 [1, 4]: 16 to 50 nM
MDCK-MDR1: % Recov A-B [2]: 78%
MDCK-MDR1: % Recov B-A [2]: 79%
efflux ratio at 120 min, 5 μM (MDR1): 5
Papp A→B at 120 min, 5 μM (MDR1): 9.9 ×10⁻⁶ cm/s
Papp B→A at 120 min, 5 μM (MDR1): 49.6 ×10⁻⁶ cm/s

Cn1ccc(-c2ccc(-c3ccc(O[C@H]4C[C@]5(C)CCC[C@@](C)(N5)[C@H]4F)nn3)c(O)c2)cc1=O (single isomer, unassigned) [149-ENT1]
EC50 (mHTT protein): 16 to 50 nM
EC50 [1, 3]: 51 to 100 nM
EC50 [1, 4]: 16 to 50 nM
MDCK-MDR1: % Recov A-B [2]: 76%
MDCK-MDR1: % Recov B-A [2]: 79%
efflux ratio at 120 min, 5 μM (MDR1): 22
Papp A→B at 120 min, 5 μM (MDR1): 2.23 ×10⁻⁶ cm/s
Papp B→A at 120 min, 5 μM (MDR1): 48.6 ×10⁻⁶ cm/s

Cn1cc(-c2ccc(-c3ccc(O[C@H]4C[C@]5(C)CCC[C@@](C)(N5)[C@H]4F)nn3)c(O)c2)cn1 (single isomer, unassigned) [154-ENT1]
EC50 (mHTT protein): 16 to 50 nM
EC50 [1, 3]: 16 to 50 nM
EC50 [1, 4]: 0.01 to 15 nM
MDCK-MDR1: % Recov A-B [2]: 73%
MDCK-MDR1: % Recov B-A [2]: 87%
efflux ratio at 120 min, 5 μM (MDR1): 4
Papp A→B at 120 min, 5 μM (MDR1): 9.33 ×10⁻⁶ cm/s
Papp B→A at 120 min, 5 μM (MDR1): 37.7 ×10⁻⁶ cm/s

Cc1ncc(-c2ccc(-c3ccc(O[C@H]4C[C@@H]5CCC[C@@H](N5)[C@H]4F)nn3)c(O)c2)s1 (single isomer, unassigned) [96-ENT2]
EC50 (mHTT protein): 16 to 50 nM
EC50 [1, 3]: 16 to 50 nM
EC50 [1, 4]: 16 to 50 nM
MDCK-MDR1: % Recov A-B [2]: 35%
MDCK-MDR1: % Recov B-A [2]: 67%
efflux ratio at 120 min, 5 μM (MDR1): 2
Papp A→B at 120 min, 5 μM (MDR1): 6.73 ×10⁻⁶ cm/s
Papp B→A at 120 min, 5 μM (MDR1): 11.6 ×10⁻⁶ cm/s

Oc1cc(-c2cn[nH]c2)ccc1-c1ccc(O[C@H]2C[C@@H]3CCC[C@@H](N3)[C@@H]2F)nn1 (single isomer, unassigned) [41-ENT1]
EC50 (mHTT protein): 0.01 to 15 nM
EC50 [1, 3]: 0.01 to 15 nM
EC50 [1, 4]: 0.01 to 15 nM
MDCK-MDR1: % Recov A-B [2]: 71%
MDCK-MDR1: % Recov B-A [2]: 86%
efflux ratio at 120 min, 5 μM (MDR1): 8
Papp A→B at 120 min, 5 μM (MDR1): 4.33 ×10⁻⁶ cm/s
Papp B→A at 120 min, 5 μM (MDR1): 34.7 ×10⁻⁶ cm/s

Cn1cc(-c2ccc(-c3ccc(O[C@@H]4C[C@@H]5CCC[C@@H](N5)[C@H]4F)nn3)c(O)c2)cn1 (single isomer, unassigned) [121-ENT2]
EC50 (mHTT protein): 501 to 10000 nM
EC50 [1, 3]: 501 to 10000 nM
EC50 [1, 4]: 501 to 10000 nM
MDCK-MDR1: % Recov A-B [2]: 75%
MDCK-MDR1: % Recov B-A [2]: 90%
efflux ratio at 120 min, 5 μM (MDR1): 3
Papp A→B at 120 min, 5 μM (MDR1): 13.5 ×10⁻⁶ cm/s
Papp B→A at 120 min, 5 μM (MDR1): 45.9 ×10⁻⁶ cm/s

Cn1cc(-c2cc(O)c(-c3ccc(O[C@@H]4C[C@H]5CCC[C@H](N5)[C@@H]4F)nn3)cn2)cn1 (single isomer, unassigned) [64-ENT1]
EC50 (mHTT protein): 501 to 10000 nM
EC50 [1, 3]: 501 to 10000 nM
EC50 [1, 4]: 501 to 10000 nM
MDCK-MDR1: % Recov A-B [2]: 99%
MDCK-MDR1: % Recov B-A [2]: 101%
efflux ratio at 120 min, 5 μM (MDR1): 68
Papp A→B at 120 min, 5 μM (MDR1): 0.18 ×10⁻⁶ cm/s
Papp B→A at 120 min, 5 μM (MDR1): 12.4 ×10⁻⁶ cm/s
